pEC50: −log10 of the molar value.
Target: T1, human S1P1 receptor (Homo sapiens, UniProt P21453)
T1 construct: expressed in transfected cells; membranes used
Assay: GTP γ35S binding assay for S1P1 activity
Type: biochemical
Details: membranes of cells stably expressing the S1P1 receptor, test compounds 0.08 to 5,000 nM
Protocol: Compounds were synthesized and tested for S1P1 activity using the GTP γ^355 binding assay. These compounds may be assessed for their ability to activate or block activation of the human S1P1 receptor in cells stably expressing the S1P1 receptor.
[…] binding was measured in the medium containing (mM) HEPES 25, pH 7.4, MgCl2 10, NaCl 100, dithitothreitol 0.5, digitonin 0.003%, 0.2 nM GTP γ^35S, and 5 μg membrane protein in a volume of 150 μl. Test compounds were included in the concentration range from 0.08 to 5,000 nM unless indicated otherwise. Membranes were incubated with 100 μM 5′-adenylylimmidodiphosphate for 30 min, and subsequently with 10 μM GDP for 10 min on ice. Drug solutions and membrane were mixed, and then reactions were initiated by adding GTP γ^35S and continued for 30 min at 25° C. Reaction mixtures were filtered over Whatman GF/B filters under vacuum, and washed three times with 3 mL of ice-cold buffer (HEPES 25, pH7.4, MgCl2 10 and NaCl-100). Filters were dried and mixed with scintillant, and counted for ^35S activity using a […]. Agonist-induced GTP γ^35S binding was obtained by subtracting that in the absence of agonist. Binding data were analyzed using a non-linear regression method. In case of antagonist assay, the reaction mixture contained 10 nM […] in the presence of test antagonist at concentrations ranging from 0.08 to 5000 nM.

T1 sequence (P21453 whole entry): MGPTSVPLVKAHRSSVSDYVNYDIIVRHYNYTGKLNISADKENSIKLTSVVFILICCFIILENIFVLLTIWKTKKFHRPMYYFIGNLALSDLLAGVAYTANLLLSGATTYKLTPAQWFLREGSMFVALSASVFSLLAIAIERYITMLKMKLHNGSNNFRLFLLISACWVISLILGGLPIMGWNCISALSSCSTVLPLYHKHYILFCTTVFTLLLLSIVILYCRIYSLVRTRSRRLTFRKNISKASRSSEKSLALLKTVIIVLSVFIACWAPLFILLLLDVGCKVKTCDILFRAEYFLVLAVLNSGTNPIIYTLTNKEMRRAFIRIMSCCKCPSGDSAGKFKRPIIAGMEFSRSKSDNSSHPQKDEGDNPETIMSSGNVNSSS

| pEC50 | Structure (SMILES) |
| --- | --- |
| 6.22 | O=C(O)CCNCc1ccc(-c2noc(CCCCc3ccccc3)n2)cc1 [3-({4-[5-(4-Phenylbutyl)-1,2,4-oxadiazol-3-yl]benzyl}amino)propanoic acid] |
| 7.10 | CCc1cc(-c2noc(CCCCc3ccccc3)n2)ccc1CNCCCP(=O)(O)O [Compound 1, [3-({2-Ethyl-4-[5-(4-phenylbutyl)-1,2,4-oxadiazol-3-yl]benzyl}amino)propyl]phosphonic acid] |
| 7.62 | O=P(O)(O)CCCNCc1ccc(-c2noc(CCCCc3ccccc3)n2)c(F)c1 [Compound 2, [3-({3-Fluoro-4-[5-(4-phenylbutyl)-1,2,4-oxadiazol-3-yl]benzyl}amino)propyl]phosphonic acid] |
| 7.77 | O=P(O)(O)CCCNCc1ccc(-c2noc(CCCCc3ccccc3)n2)c(Br)c1 [Compound 3, [3-({3-Bromo-4-[5-(4-phenylbutyl)-1,2,4-oxadiazol-3-yl]benzyl}amino)propyl]phosphonic acid] |
| 7.20 | O=P(O)(O)CCCNCc1ccc(-c2noc(CCCCc3ccccc3)n2)cc1 [Compound 4, [3-({4-[5-(4-Phenylbutyl)-1,2,4-oxadiazol-3-yl]benzyl}amino)propyl]phosphonic acid] |
| 6.66 | O=P(O)(O)CCCNCc1ccc(-c2noc(CCCCc3ccccc3)n2)c(-c2ccco2)c1 [Compound 7, [3-({3-(2-Furyl)-4-[5-(4-phenylbutyl)1,2,4-oxadiazol-3-yl]benzyl}amino)propyl]phosphonic acid] |
